Test system: HSSY-II complex spheroid growth, percent test/control
Assay: Anticancer human tumor HSSY-II cell line growth inhibition [Asc];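 note: spheroids exposed to drug for 7 days before reading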
Conditions: for IC50: curve of first compound; for viability, T/C: stronger effect = lower value
Method in brief: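 Tumor cells were grown as multicellular spheroids with stromal HUVEC and mesenchymal stem cells and treated singly or in combination. Concentrations fell in half-log steps from the clinical Cmax, or from 10 microM where none was known.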

[1] = second compound 0.01 µM, first compound 0.0316 µM
[2] = second compound 0.01 µM, first compound 0.1 µM
[3] = second compound 0.01 µM, first compound 0.316 µM
[4] = second compound 0.01 µM, first compound 1 µM
[5] = second compound 0.0316 µM, first compound 0.0316 µM
[6] = second compound 0.0316 µM, first compound 0.1 µM
[7] = second compound 0.0316 µM, first compound 0.316 µM
[8] = second compound 0.0316 µM, first compound 1 µM
[9] = second compound 0.1 µM, first compound 0.0316 µM
[10] = second compound 0.1 µM, first compound 0.1 µM
[11] = second compound 0.1 µM, first compound 0.316 µM
[12] = second compound 0.1 µM, first compound 1 µM
[13] = second compound 0.316 µM, first compound 0.0316 µM
[14] = second compound 0.316 µM, first compound 0.1 µM
[15] = second compound 0.316 µM, first compound 0.316 µM
[16] = second compound 0.316 µM, first compound 1 µM
[17] = second compound 1 µM, first compound 0.0316 µM
[18] = second compound 1 µM, first compound 0.1 µM
[19] = second compound 1 µM, first compound 0.316 µM
[20] = second compound 1 µM, first compound 1 µM
[21] = second compound 0.01 µM, first compound 0.00316 µM
[22] = second compound 0.01 µM, first compound 0.01 µM
[23] = second compound 0.0316 µM, first compound 0.00316 µM
[24] = second compound 0.0316 µM, first compound 0.01 µM
[25] = second compound 0.1 µM, first compound 0.00316 µM
[26] = second compound 0.1 µM, first compound 0.01 µM
[27] = second compound 0.316 µM, first compound 0.00316 µM
[28] = second compound 0.316 µM, first compound 0.01 µM
[29] = second compound 1 µM, first compound 0.00316 µM
[30] = second compound 1 µM, first compound 0.01 µM

| SMILES | IC50 (second compound 0.01 µM) [nM] | IC50 (second compound 0.0316 µM) [nM] | IC50 (second compound 0.1 µM) [nM] | IC50 (second compound 0.316 µM) [nM] | IC50 (second compound 1 µM) [nM] | viability, T/C [1] [%] | viability, T/C [2] [%] | viability, T/C [3] [%] | viability, T/C [4] [%] | viability, T/C [5] [%] | viability, T/C [6] [%] | viability, T/C [7] [%] | viability, T/C [8] [%] | viability, T/C [9] [%] | viability, T/C [10] [%] | viability, T/C [11] [%] | viability, T/C [13] [%] | viability, T/C [14] [%] | viability, T/C [17] [%] | viability, T/C [18] [%] | further results |
| --- | --- | --- | --- | --- | --- | --- | --- | --- | --- | --- | --- | --- | --- | --- | --- | --- | --- | --- | --- | --- | --- |
| C=CC(=O)N1CCN(c2nc(=O)n(-c3c(C)ccnc3C(C)C)c3nc(-c4c(O)cccc4F)c(F)cc23)C(C)C1 (stereo not given) + CNC(C)C(=O)NC1CN(S(=O)(=O)c2cccc(S(=O)(=O)N3CCC4CCC(C(=O)NC(c5ccccc5)c5ccccc5)N4C(=O)C(NC(=O)C(C)NC)C3)c2)CCC2CCC(C(=O)NC(c3ccccc3)c3ccccc3)N2C1=O | 7990 | 5850 | 5980 | 7420 | 6390 | 97.5 | 108 | 107 | 101 | 92.9 | 104 | 91.7 | 89.8 | 86.9 | 91.8 | 90.6 | 89.5 | 98.9 | 82.7 | 87.6 | viability, T/C (second compound 0.01 µM, first compound 3.16 µM): 94.3%; viability, T/C (second compound 0.01 µM, first compound 10 µM): 39.1%; viability, T/C (second compound 0.0316 µM, first compound 3.16 µM): 72%; viability, T/C (second compound 0.0316 µM, first compound 10 µM): 30.9%; viability, T/C [12]: 87.5%; viability, T/C (second compound 0.1 µM, first compound 3.16 µM): 68.4%; viability, T/C (second compound 0.1 µM, first compound 10 µM): 35.1%; viability, T/C [15]: 101%; viability, T/C [16]: 92.2%; viability, T/C (second compound 0.316 µM, first compound 3.16 µM): 89.1%; viability, T/C (second compound 0.316 µM, first compound 10 µM): 36.2%; viability, T/C [19]: 88.5%; viability, T/C [20]: 73.5%; viability, T/C (second compound 1 µM, first compound 3.16 µM): 89%; viability, T/C (second compound 1 µM, first compound 10 µM): 28.1% |
| COc1c(OCCCN2CCOCC2)ccc2c3n(c(=NC(=O)c4cnc(N)nc4)nc12)CCN3 + CNC(C)C(=O)NC1CN(S(=O)(=O)c2cccc(S(=O)(=O)N3CCC4CCC(C(=O)NC(c5ccccc5)c5ccccc5)N4C(=O)C(NC(=O)C(C)NC)C3)c2)CCC2CCC(C(=O)NC(c3ccccc3)c3ccccc3)N2C1=O | 44 | 45.1 | 34.9 | 45.9 | 54 | 51.4 | 36.8 | 22.4 | 12 | 54.8 | 34.3 | 21.8 | 9.94 | 49 | 38.8 | 24.7 | 53.8 | 34.5 | 63.2 | 33.7 | viability, T/C [21]: 84.3%; viability, T/C [22]: 79.6%; viability, T/C [23]: 82%; viability, T/C [24]: 77.5%; viability, T/C [25]: 81.2%; viability, T/C [26]: 64.9%; viability, T/C [12]: 10.4%; viability, T/C [27]: 86.4%; viability, T/C [28]: 80.1%; viability, T/C [15]: 24.2%; viability, T/C [16]: 8.5%; viability, T/C [29]: 80.1%; viability, T/C [30]: 73.8%; viability, T/C [19]: 24.7%; viability, T/C [20]: 9.52% |
| NC1CCC(NC2CC2c2ccccc2)CC1 (stereo not given) + CNC(C)C(=O)NC1CN(S(=O)(=O)c2cccc(S(=O)(=O)N3CCC4CCC(C(=O)NC(c5ccccc5)c5ccccc5)N4C(=O)C(NC(=O)C(C)NC)C3)c2)CCC2CCC(C(=O)NC(c3ccccc3)c3ccccc3)N2C1=O | > 100 | < 0.316 | 0.67 | < 0.316 | < 0.316 | 56.4 | 52.1 |  |  | 45.5 | 48.7 |  |  | 39 | 49.9 |  | 47.1 | 47.6 | 46.6 | 52.7 | viability, T/C (second compound 0.01 µM, first compound 0.000316 µM): 59.5%; viability, T/C (second compound 0.01 µM, first compound 0.001 µM): 59.1%; viability, T/C [21]: 48.6%; viability, T/C [22]: 54.9%; viability, T/C (second compound 0.0316 µM, first compound 0.000316 µM): 43.9%; viability, T/C (second compound 0.0316 µM, first compound 0.001 µM): 43.3%; viability, T/C [23]: 46.4%; viability, T/C [24]: 49.3%; viability, T/C (second compound 0.1 µM, first compound 0.000316 µM): 56.2%; viability, T/C (second compound 0.1 µM, first compound 0.001 µM): 46.3%; viability, T/C [25]: 48.4%; viability, T/C [26]: 49.2%; viability, T/C (second compound 0.316 µM, first compound 0.000316 µM): 51.2%; viability, T/C (second compound 0.316 µM, first compound 0.001 µM): 44.2%; viability, T/C [27]: 49.4%; viability, T/C [28]: 43.4%; viability, T/C (second compound 1 µM, first compound 0.000316 µM): 38.7%; viability, T/C (second compound 1 µM, first compound 0.001 µM): 47.1%; viability, T/C [29]: 51.8%; viability, T/C [30]: 41.2% |

Reference: PubChem BioAssay AID1963444 (Molecular Pharmacology Branch, DTP, NCI, 2024)
